Results published in ChEMBL document CHEMBL4190253, “Synthesis of novel 5-(aroylhydrazinocarbonyl)escitalopram as cholinesterase inhibitors” (Eur J Med Chem, 2017).

Assays:
[1] = molecular target: Cholinesterase (Equus caballus) (UniProt P81908); assay: Inhibition of equine serum BCHE at 0.5 mM using butyrylthiocholine iodide as substrate preincubated for 10 mins followed by substrate addition measured after 30 mins by Ellman's method relative to control
[2] = Selectivity ratio of IC50 for electric eel AChE to IC50 for equine serum BCHE
Acetylcholinesterase = Acetylcholinesterase (Electrophorus electricus, UniProt O42275); assay: Inhibition of electric eel AChE using acetylthiocholine iodide as substrate preincubated for 10 mins followed by substrate addition measured after 30 mins by Ellman's method
[3] = molecular target: Acetylcholinesterase (Electrophorus electricus) (UniProt O42275); assay: Inhibition of electric eel AChE at 0.5 mM using acetylthiocholine iodide as substrate preincubated for 10 mins followed by substrate addition measured after 30 mins by Ellman's method relative to control
Cholinesterase = Cholinesterase (Equus caballus, UniProt P81908); assay: Inhibition of equine serum BCHE using butyrylthiocholine iodide as substrate preincubated for 10 mins followed by substrate addition measured after 30 mins by Ellman's method
Sequence of Cholinesterase (P81908 whole entry): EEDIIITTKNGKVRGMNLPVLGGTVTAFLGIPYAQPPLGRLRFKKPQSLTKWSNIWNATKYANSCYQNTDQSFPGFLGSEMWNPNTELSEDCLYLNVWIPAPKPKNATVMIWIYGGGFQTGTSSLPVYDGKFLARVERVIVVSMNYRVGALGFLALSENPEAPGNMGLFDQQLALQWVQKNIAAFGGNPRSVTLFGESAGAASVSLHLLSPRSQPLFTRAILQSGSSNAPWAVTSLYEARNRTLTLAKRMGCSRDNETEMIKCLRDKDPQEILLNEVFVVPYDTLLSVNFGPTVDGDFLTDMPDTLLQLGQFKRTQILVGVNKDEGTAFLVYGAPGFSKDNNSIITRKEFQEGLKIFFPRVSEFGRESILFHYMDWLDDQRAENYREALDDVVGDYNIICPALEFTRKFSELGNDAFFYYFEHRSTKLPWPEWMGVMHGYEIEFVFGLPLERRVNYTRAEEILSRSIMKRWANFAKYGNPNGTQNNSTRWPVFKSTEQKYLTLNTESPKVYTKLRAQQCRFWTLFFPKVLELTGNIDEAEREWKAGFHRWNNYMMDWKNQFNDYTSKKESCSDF

Sequence of Cholinesterase (Equus caballus) (P81908 whole entry): as above
Sequence of Acetylcholinesterase (O42275 whole entry): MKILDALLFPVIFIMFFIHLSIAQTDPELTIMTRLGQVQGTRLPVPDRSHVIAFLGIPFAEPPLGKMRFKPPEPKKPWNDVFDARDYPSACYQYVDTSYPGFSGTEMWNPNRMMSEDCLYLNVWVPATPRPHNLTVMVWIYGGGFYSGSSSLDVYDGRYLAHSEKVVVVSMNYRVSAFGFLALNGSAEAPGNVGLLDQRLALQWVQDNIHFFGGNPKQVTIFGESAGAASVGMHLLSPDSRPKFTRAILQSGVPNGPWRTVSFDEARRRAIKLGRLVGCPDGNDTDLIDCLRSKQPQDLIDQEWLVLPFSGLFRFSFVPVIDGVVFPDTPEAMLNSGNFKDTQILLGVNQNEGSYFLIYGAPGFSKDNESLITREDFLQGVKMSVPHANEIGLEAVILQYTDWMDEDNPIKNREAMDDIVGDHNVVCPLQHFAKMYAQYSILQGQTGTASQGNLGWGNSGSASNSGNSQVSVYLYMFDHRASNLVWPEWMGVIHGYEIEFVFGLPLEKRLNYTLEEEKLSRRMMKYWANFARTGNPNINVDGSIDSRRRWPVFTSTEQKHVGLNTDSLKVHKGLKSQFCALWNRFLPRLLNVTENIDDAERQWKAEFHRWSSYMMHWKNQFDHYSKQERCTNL
Sequence of Acetylcholinesterase (Electrophorus electricus) (O42275 24-633 limits assumed): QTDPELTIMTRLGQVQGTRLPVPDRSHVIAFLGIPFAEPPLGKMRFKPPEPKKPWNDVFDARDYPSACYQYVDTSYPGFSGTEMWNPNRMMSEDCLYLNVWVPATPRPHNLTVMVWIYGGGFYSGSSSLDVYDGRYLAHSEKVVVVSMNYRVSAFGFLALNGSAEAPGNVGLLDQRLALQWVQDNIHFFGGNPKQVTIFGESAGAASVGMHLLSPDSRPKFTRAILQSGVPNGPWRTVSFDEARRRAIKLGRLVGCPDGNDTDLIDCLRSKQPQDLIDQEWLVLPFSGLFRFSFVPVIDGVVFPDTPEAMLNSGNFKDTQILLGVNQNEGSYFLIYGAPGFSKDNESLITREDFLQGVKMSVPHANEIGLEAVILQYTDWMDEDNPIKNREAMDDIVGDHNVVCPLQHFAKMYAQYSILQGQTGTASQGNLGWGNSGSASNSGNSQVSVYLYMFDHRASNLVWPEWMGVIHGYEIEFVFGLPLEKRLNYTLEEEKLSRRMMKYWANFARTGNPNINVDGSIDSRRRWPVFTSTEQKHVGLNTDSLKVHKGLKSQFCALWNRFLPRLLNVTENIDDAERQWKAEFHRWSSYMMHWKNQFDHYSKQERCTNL

SMILES	inhibition [1]	Ratio IC50 [2]	IC50 (Acetylcholinesterase)	inhibition [3]	IC50 (Cholinesterase)
CN(C)CCCC1(c2ccc(F)cc2)OCc2cc(C(=O)NNC(=O)c3ccc(I)cc3)ccc21 (stereo unspecified)	85.5%	35.7	210 µM	76.4%	5.88 µM
Cc1ccccc1C(=O)NNC(=O)c1ccc2c(c1)COC2(CCCN(C)C)c1ccc(F)cc1 (stereo unspecified)	72.4%	0.49	115 µM	83.4%	233 µM
CN(C)CCCC1(c2ccc(F)cc2)OCc2cc(C(=O)NNC(=O)c3ccc([N+](=O)[O-])cc3)ccc21 (stereo unspecified)	74.6%	0.74	125 µM	75.8%	169 µM
CN(C)CCCC1(c2ccc(F)cc2)OCc2cc(C(=O)NNC(=O)c3ccc(Br)cc3)ccc21 (stereo unspecified)	76.2%	0.62	118 µM	78.3%	190 µM
CN(C)CCCC1(c2ccc(F)cc2)OCc2cc(C(=O)NNC(=O)c3cccc(Br)c3)ccc21 (stereo unspecified)	88.8%	0.88	115 µM	80.1%	130 µM
CN(C)CCCC1(c2ccc(F)cc2)OCc2cc(C(=O)NNC(=O)c3ccccc3Br)ccc21 (stereo unspecified)	84.1%	3.7	7.81 µM	85.2%	2.11 µM
CN(C)CCCC1(c2ccc(F)cc2)OCc2cc(C(=O)NNC(=O)c3ccc(N)cc3)ccc21 (stereo unspecified)	85.5%	21.6	129 µM	83.2%	5.98 µM
CN(C)CCCC1(c2ccc(F)cc2)OCc2cc(C(=O)NNC(=O)c3cccc(O)c3)ccc21 (stereo unspecified)	88.2%	1.52	197 µM	64.4%	129 µM
CN(C)CCCC1(c2ccc(F)cc2)OCc2cc(C(=O)NNC(=O)c3ccccc3I)ccc21 (stereo unspecified)	82.6%	1.87	146 µM	81.8%	77.9 µM
CN(C)CCCC1(c2ccc(F)cc2)OCc2cc(C(=O)NNC(=O)c3ccccc3O)ccc21 (stereo unspecified)	85.7%	3.32	296 µM	59%	89 µM
Cc1cccc(C(=O)NNC(=O)c2ccc3c(c2)COC3(CCCN(C)C)c2ccc(F)cc2)c1 (stereo unspecified)	85.7%	1.32	117 µM	82.6%	88.7 µM
COc1ccccc1C(=O)NNC(=O)c1ccc2c(c1)COC2(CCCN(C)C)c1ccc(F)cc1 (stereo unspecified)	88.8%	0.35	45.8 µM	88.6%	130 µM
CN(C)CCCC1(c2ccc(F)cc2)OCc2cc(C(=O)NNC(=O)c3cccc(F)c3)ccc21 (stereo unspecified)	73.3%	0.76	141 µM	77.1%	185 µM
CN(C)CCCC1(c2ccc(F)cc2)OCc2cc(C(=O)NNC(=O)c3ccc(O)cc3)ccc21 (stereo unspecified)	73.2%	0.61	117 µM	84.6%	192 µM
CN(C)CCCC1(c2ccc(F)cc2)OCc2cc(C(=O)NNC(=O)c3cccc(I)c3)ccc21 (stereo unspecified)	85.4%	1.81	127 µM	83.7%	70.2 µM
CN(C)CCCC1(c2ccc(F)cc2)OCc2cc(C(=O)NNC(=O)c3ccc(Cl)cc3)ccc21 (stereo unspecified)	78.4%	0.04	6.71 µM	86.1%	138 µM
CN(C)CCCC1(c2ccc(F)cc2)OCc2cc(C(=O)NNC(=O)c3ccccc3[N+](=O)[O-])ccc21 (stereo unspecified)	84.1%	3.35	256 µM	70.3%	76.3 µM
CNC(=O)Oc1ccc2c(c1)[C@]1(C)CCN(C)[C@@H]1N2C	82.8%				
CN(C)CCCC1(c2ccc(F)cc2)OCc2cc(C(=O)NNC(=O)c3ccccc3Cl)ccc21 (stereo unspecified)	85.4%	1.67	116 µM	81.4%	69.3 µM
Cc1ccc(C(=O)NNC(=O)c2ccc3c(c2)COC3(CCCN(C)C)c2ccc(F)cc2)cc1 (stereo unspecified)	76.6%	1.69	268 µM	69.7%	158 µM
COc1cc(C(=O)NNC(=O)c2ccc3c(c2)COC3(CCCN(C)C)c2ccc(F)cc2)ccc1O (stereo unspecified)	84.1%	1.45	112 µM	81.3%	76.9 µM
CN(C)CCCC1(c2ccc(F)cc2)OCc2cc(C(=O)NNC(=O)c3ccc(F)cc3)ccc21 (stereo unspecified)	74.6%	0.63	112 µM	86.6%	179 µM
CN(C)CCCC1(c2ccc(F)cc2)OCc2cc(C(=O)NNC(=O)c3ccccc3F)ccc21 (stereo unspecified)	85.5%	1.55	111 µM	84.4%	71.4 µM
CN(C)CCCC1(c2ccc(F)cc2)OCc2cc(C(=O)NNC(=O)c3cccc(Cl)c3)ccc21 (stereo unspecified)	84%	0.46	1.8 µM	93.5%	3.9 µM
CN(C)CCCC1(c2ccc(F)cc2)OCc2cc(C(=O)NNC(=O)c3cccc([N+](=O)[O-])c3)ccc21 (stereo unspecified)	73.3%	0.74	137 µM	79.3%	185 µM
COc1ccc(C(=O)NNC(=O)c2ccc3c(c2)COC3(CCCN(C)C)c2ccc(F)cc2)cc1 (stereo unspecified)	72.2%	0.63	124 µM	76.4%	196 µM
CN(C)CCCC1(c2ccc(F)cc2)OCc2cc(C(=O)NNC(=O)c3ccccc3)ccc21 (stereo unspecified)	81.5%	3.53	268 µM	69.8%	75.8 µM
CN(C)CCCC1(c2ccc(F)cc2)OCc2cc(C(=O)NNC(=O)c3ccccc3N)ccc21 (stereo unspecified)	84.4%	1.72	118 µM	84.5%	68.2 µM
